Measured values published in the NIST ThermoML archive (doi:10.1016/j.jct.2012.01.019).
Numbers after ± are expanded uncertainties.

Assay: activity coefficient (dimensionless); of the first substance listed, at infinite dilution; xn = mol fraction of the nth substance listed
Details: 101 kPa, Liquid, Chromatography, x1 = 0

| SMILES | activity coefficient (318.15 K) | activity coefficient (328.15 K) | activity coefficient (338.15 K) | activity coefficient (348.15 K) | activity coefficient (358.15 K) | activity coefficient (368.15 K) |
| --- | --- | --- | --- | --- | --- | --- |
| CCCCCC [hexane] + COCC[N+]1(C)CCCCC1.O=S(=O)([N-]S(=O)(=O)C(F)(F)F)C(F)(F)F | 16.9 ± 0.8 | 16 ± 0.7 | 15.1 ± 0.7 | 14.2 ± 0.7 | 13.5 ± 0.6 | 13 ± 0.6 |
| C1CCCCCC1 [cycloheptane] + COCC[N+]1(C)CCCCC1.O=S(=O)([N-]S(=O)(=O)C(F)(F)F)C(F)(F)F | 13.3 ± 0.6 | 12.5 ± 0.6 | 11.7 ± 0.5 | 10.9 ± 0.5 | 10.2 ± 0.5 | 9.64 ± 0.44 |
| CCCCCCC [heptane] + COCC[N+]1(C)CCCCC1.O=S(=O)([N-]S(=O)(=O)C(F)(F)F)C(F)(F)F | 24.5 ± 1.1 | 22.9 ± 1.1 | 21.2 ± 1 | 19.8 ± 0.9 | 18.4 ± 0.9 | 17.5 ± 0.8 |
| C=CCCCCCCCC [1-decene] + COCC[N+]1(C)CCCCC1.O=S(=O)([N-]S(=O)(=O)C(F)(F)F)C(F)(F)F | 36.2 ± 2.5 | 33.7 ± 2.3 | 31.4 ± 2.1 | 29.2 ± 2 | 27.4 ± 1.9 | 26 ± 1.8 |
| C1COCCO1 [1,4-dioxane] + COCC[N+]1(C)CCCCC1.O=S(=O)([N-]S(=O)(=O)C(F)(F)F)C(F)(F)F | 0.616 ± 0.043 | 0.636 ± 0.044 | 0.654 ± 0.045 | 0.673 ± 0.046 | 0.687 ± 0.046 | 0.705 ± 0.047 |
| Cc1ccc(C)cc1 [1,4-dimethylbenzene] + COCC[N+]1(C)CCCCC1.O=S(=O)([N-]S(=O)(=O)C(F)(F)F)C(F)(F)F | 1.08 ± 0.07 | 1.1 ± 0.07 | 1.13 ± 0.07 | 1.14 ± 0.07 | 1.16 ± 0.07 | 1.19 ± 0.08 |
| CC1CCCCC1 [methylcyclohexane] + COCC[N+]1(C)CCCCC1.O=S(=O)([N-]S(=O)(=O)C(F)(F)F)C(F)(F)F | 13.5 ± 0.6 | 12.7 ± 0.6 | 12 ± 0.6 | 11.2 ± 0.5 | 10.6 ± 0.5 | 10.2 ± 0.5 |
| CCCO [propan-1-ol] + COCC[N+]1(C)CCCCC1.O=S(=O)([N-]S(=O)(=O)C(F)(F)F)C(F)(F)F | 2.13 ± 0.14 | 1.93 ± 0.13 | 1.77 ± 0.12 | 1.61 ± 0.11 | 1.5 ± 0.1 | 1.4 ± 0.09 |
| c1ccsc1 [thiophene] + COCC[N+]1(C)CCCCC1.O=S(=O)([N-]S(=O)(=O)C(F)(F)F)C(F)(F)F | 0.787 ± 0.051 | 0.798 ± 0.052 | 0.808 ± 0.052 | 0.819 ± 0.053 | 0.829 ± 0.053 | 0.839 ± 0.054 |
| CCC(C)CC [3-methylpentane] + COCC[N+]1(C)CCCCC1.O=S(=O)([N-]S(=O)(=O)C(F)(F)F)C(F)(F)F | 14.7 ± 0.7 | 13.9 ± 0.6 | 13.2 ± 0.6 | 12.5 ± 0.6 | 11.9 ± 0.6 | 11.5 ± 0.5 |
| CCC(=O)OC [methyl propanoate] + COCC[N+]1(C)CCCCC1.O=S(=O)([N-]S(=O)(=O)C(F)(F)F)C(F)(F)F | 0.888 ± 0.057 | 0.904 ± 0.057 | 0.92 ± 0.058 | 0.936 ± 0.059 | 0.95 ± 0.06 | 0.966 ± 0.061 |
| CCOC(C)(C)C [2-ethoxy-2-methylpropane] + COCC[N+]1(C)CCCCC1.O=S(=O)([N-]S(=O)(=O)C(F)(F)F)C(F)(F)F | 5.82 ± 0.4 | 5.71 ± 0.39 | 5.62 ± 0.38 | 5.53 ± 0.38 | 5.44 ± 0.37 | 5.38 ± 0.37 |
| Cc1ccccc1 [toluene] + COCC[N+]1(C)CCCCC1.O=S(=O)([N-]S(=O)(=O)C(F)(F)F)C(F)(F)F | 1.29 ± 0.08 | 1.3 ± 0.08 | 1.32 ± 0.09 | 1.33 ± 0.09 | 1.34 ± 0.09 | 1.35 ± 0.09 |
| CC(C)(C)O [2-methylpropan-2-ol] + COCC[N+]1(C)CCCCC1.O=S(=O)([N-]S(=O)(=O)C(F)(F)F)C(F)(F)F | 1.87 ± 0.13 | 1.73 ± 0.12 | 1.61 ± 0.11 | 1.5 ± 0.1 | 1.42 ± 0.09 | 1.34 ± 0.09 |
| CCCC=O [butanal] + COCC[N+]1(C)CCCCC1.O=S(=O)([N-]S(=O)(=O)C(F)(F)F)C(F)(F)F | 0.779 ± 0.051 | 0.791 ± 0.051 | 0.805 ± 0.052 | 0.817 ± 0.053 | 0.828 ± 0.053 | 0.84 ± 0.054 |
| CCCCCCCCC [nonane] + COCC[N+]1(C)CCCCC1.O=S(=O)([N-]S(=O)(=O)C(F)(F)F)C(F)(F)F | 50.8 ± 2.4 | 46.3 ± 2.2 | 42 ± 2 | 38.2 ± 1.8 | 35.1 ± 1.6 | 32.4 ± 1.5 |

| SMILES | activity coefficient (318.15 K) | activity coefficient (328.15 K) | activity coefficient (338.15 K) | activity coefficient (348.15 K) | activity coefficient (358.15 K) | activity coefficient (368.15 K) |
| --- | --- | --- | --- | --- | --- | --- |
| COC(C)=O [methyl ethanoate] + COCC[N+]1(C)CCCCC1.O=S(=O)([N-]S(=O)(=O)C(F)(F)F)C(F)(F)F | 0.7 ± 0.047 | 0.714 ± 0.048 | 0.726 ± 0.048 | 0.74 ± 0.049 | 0.751 ± 0.049 | 0.763 ± 0.05 |
| C=CCCCCCC [oct-1-ene] + COCC[N+]1(C)CCCCC1.O=S(=O)([N-]S(=O)(=O)C(F)(F)F)C(F)(F)F | 18.1 ± 1.2 | 17 ± 1.2 | 16.1 ± 1.1 | 15.1 ± 1 | 14.4 ± 1 | 13.8 ± 0.9 |
| CCCCO [butan-1-ol] + COCC[N+]1(C)CCCCC1.O=S(=O)([N-]S(=O)(=O)C(F)(F)F)C(F)(F)F | 2.72 ± 0.19 | 2.45 ± 0.17 | 2.22 ± 0.15 | 2.01 ± 0.14 | 1.85 ± 0.12 | 1.71 ± 0.11 |
| CCOCC [diethyl ether] + COCC[N+]1(C)CCCCC1.O=S(=O)([N-]S(=O)(=O)C(F)(F)F)C(F)(F)F | 2.6 ± 0.18 | 2.59 ± 0.18 | 2.58 ± 0.18 | 2.58 ± 0.18 | 2.57 ± 0.17 | 2.56 ± 0.17 |
| C1CCCC1 [cyclopentane] + COCC[N+]1(C)CCCCC1.O=S(=O)([N-]S(=O)(=O)C(F)(F)F)C(F)(F)F | 6.73 ± 0.31 | 6.42 ± 0.29 | 6.13 ± 0.28 | 5.86 ± 0.27 | 5.63 ± 0.26 | 5.45 ± 0.25 |
| CCC[N+](=O)[O-] [1-nitropropane] + COCC[N+]1(C)CCCCC1.O=S(=O)([N-]S(=O)(=O)C(F)(F)F)C(F)(F)F | 0.724 ± 0.048 | 0.725 ± 0.048 | 0.726 ± 0.048 | 0.727 ± 0.048 | 0.727 ± 0.048 | 0.728 ± 0.048 |
| C1CCCCC1 [cyclohexane] + COCC[N+]1(C)CCCCC1.O=S(=O)([N-]S(=O)(=O)C(F)(F)F)C(F)(F)F | 9.72 ± 0.45 | 9.23 ± 0.42 | 8.71 ± 0.4 | 8.24 ± 0.38 | 7.81 ± 0.36 | 7.48 ± 0.34 |
| C=CCCC [1-pentene] + COCC[N+]1(C)CCCCC1.O=S(=O)([N-]S(=O)(=O)C(F)(F)F)C(F)(F)F | 6.03 ± 0.41 | 5.9 ± 0.4 | 5.73 ± 0.39 | 5.6 ± 0.38 | 5.46 ± 0.37 | 5.36 ± 0.37 |
| C=CCCCC [hex-1-ene] + COCC[N+]1(C)CCCCC1.O=S(=O)([N-]S(=O)(=O)C(F)(F)F)C(F)(F)F | 8.78 ± 0.6 | 8.38 ± 0.57 | 8.05 ± 0.55 | 7.69 ± 0.52 | 7.45 ± 0.51 | 7.22 ± 0.49 |
| C#CCCCCCC [1-octyne] + COCC[N+]1(C)CCCCC1.O=S(=O)([N-]S(=O)(=O)C(F)(F)F)C(F)(F)F | 6.02 ± 0.41 | 5.92 ± 0.4 | 5.85 ± 0.4 | 5.77 ± 0.39 | 5.7 ± 0.39 | 5.63 ± 0.38 |
| C#CCCCC [1-hexyne] + COCC[N+]1(C)CCCCC1.O=S(=O)([N-]S(=O)(=O)C(F)(F)F)C(F)(F)F | 2.98 ± 0.2 | 2.99 ± 0.2 | 3 ± 0.2 | 3.01 ± 0.2 | 3.02 ± 0.21 | 3.03 ± 0.21 |
| CC(C)=O [acetone] + COCC[N+]1(C)CCCCC1.O=S(=O)([N-]S(=O)(=O)C(F)(F)F)C(F)(F)F | 0.462 ± 0.036 | 0.471 ± 0.037 | 0.48 ± 0.037 | 0.49 ± 0.037 | 0.498 ± 0.038 | 0.507 ± 0.038 |
| CC(C)O [propan-2-ol] + COCC[N+]1(C)CCCCC1.O=S(=O)([N-]S(=O)(=O)C(F)(F)F)C(F)(F)F | 1.92 ± 0.13 | 1.76 ± 0.12 | 1.61 ± 0.11 | 1.47 ± 0.1 | 1.37 ± 0.09 | 1.28 ± 0.08 |
| C1=CCCCC1 [cyclohexene] + COCC[N+]1(C)CCCCC1.O=S(=O)([N-]S(=O)(=O)C(F)(F)F)C(F)(F)F | 5.41 ± 0.37 | 5.21 ± 0.36 | 5 ± 0.34 | 4.83 ± 0.33 | 4.67 ± 0.32 | 4.53 ± 0.31 |
| CCCOCCC [dipropyl ether] + COCC[N+]1(C)CCCCC1.O=S(=O)([N-]S(=O)(=O)C(F)(F)F)C(F)(F)F | 6.45 ± 0.44 | 6.28 ± 0.43 | 6.13 ± 0.42 | 5.98 ± 0.41 | 5.86 ± 0.4 | 5.75 ± 0.39 |
